Measurements: the supplement of paper PMC6045584

Tests used:
Assay in all cases: area under dose-response curve of surviving fraction (unscaled, Aref=0) (surviving fraction x log10(nM)); higher = more resistant
Conditions in all cases: exposure time: 5 days; dose range 0.5-1000 nM
[1] = compound: CN1CCN(c2nc(C3=C(c4c[nH]c5ccccc45)C(=O)NC3=O)c3ccccc3n2)CC1 [SOTRASTAURIN/AEB071]
How it was run: (§1)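 Surviving fractions were fitted by 3-parameter logistic regression in the drc R package to give dose-response survival curves. They came from tumour cell lines treated for five days with eight inhibitor concentrations from 0.5 to 1000 nM and read by CellTiter-Glo luminescence against DMSO-only wells. The area under the curve is the unscaled activity area. It was calculated over log10 dose with Aref = 0.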

[2] = compound: C[C@@H](Oc1cc(-c2cnn(C3CCNCC3)c2)cnc1N)c1c(Cl)ccc(F)c1Cl [CRIZOTINIB]
How it was run: as §1

[3] = compound: Cc1nc(Nc2ncc(C(=O)Nc3c(C)cccc3Cl)s2)cc(N2CCN(CCO)CC2)n1 [DASATINIB]
How it was run: as §1

[4] = compound: C[C@]12CC[C@H](O)CC1=CC[C@@H]1[C@@H]2CC[C@]2(C)C(c3cccnc3)=CC[C@@H]12 [ABIRATERONE]
How it was run: as §1

[5] = compound: CNC(=O)c1cc(Oc2ccc(NC(=O)Nc3ccc(Cl)c(C(F)(F)F)c3)cc2)ccn1 [SORAFENIB]
How it was run: as §1

[6] = compound: O=C(c1cc(Cc2n[nH]c(=O)c3ccccc23)ccc1F)N1CCN(C(=O)C2CC2)CC1 [OLAPARIB]
How it was run: as §1

[7] = compound: CCn1c(C(=O)N(C2CC2)C2CC2)cc2c3c(ncn3C)c(Nc3cc(C)n(C)n3)nc21
How it was run: as §1

[8] = compound: Oc1nc(-c2ccc(C(F)(F)F)cc2)nc2c1CSCC2 [XAV-939]
How it was run: as §1

[9] = compound: COc1cc2ncnc(Nc3ccc(F)c(Cl)c3)c2cc1NC(=O)/C=C/CN1CCCCC1
How it was run: as §1

[10] = compound: C[C@@H](Oc1cc(-c2cnn(C3CCNCC3)c2)cnc1N)c1c(Cl)ccc(F)c1Cl
How it was run: as §1

Test System	area under dose-response curve [1]	area under dose-response curve [2]	area under dose-response curve [3]	area under dose-response curve [4]	area under dose-response curve [5]	area under dose-response curve [6]	area under dose-response curve [7]	area under dose-response curve [8]	area under dose-response curve [9]	area under dose-response curve [10]
CCK81 LARGE INTESTINE	2.85	2.36	1.86	–	–	–	–	–	–	–
G292 BONE	3.33	3	1.79	3.4	3.26	3.17	3.3	3.14	3.03	2.88
HCC38 BREAST	3.03	–	2.79	4.04	4.12	2.57	–	3.17	–	3.21
HCC70 BREAST	3.82	3.69	2.81	3.59	3.81	3.59	3.28	–	3.17	3.26
HMLE3 BREAST	–	–	2.46	3.42	–	3.22	3.12	3.15	3.01	2.86
HMT3552 BREAST	–	3.05	1.53	–	–	–	–	–	–	–
HS578T BREAST	3.13	–	1.56	–	2.64	2.79	3.19	3.76	–	2.75
